Measured values reported in ChEMBL document CHEMBL2046420, “Edible Myrciaria vexator fruits: bioactive phenolics for potential COPD therapy” (Bioorg Med Chem, 2012).
Active and inactive are the calls of the source. No cut-off for these calls is given here.

What was measured:
[1] = test system: SAE; test: Inhibition of MMP1 mRNA expression in human SAE cells at 1 to 10 ug/ml after 24 hrs by quantitative RT-PCR analysis; format: functional, cell-based
[2] = test system: SAE; test: Inhibition of CPE-induced MMP1 mRNA expression in human SAE cells after 24 hrs by quantitative RT-PCR analysis; format: functional, cell-based
[3] = Inhibition of CPE-induced MMP1 mRNA expression in human SAE cells after 24 hrs by quantitative RT-PCR analysis relative to control; format: functional
[4] = Cytotoxicity against human SAE cells at 1 to 10 ug/ml; format: cell-based

O=c1oc2c(O)c(O)cc3c(=O)oc4c(O)c(O)cc1c4c23 [ELLAGIC ACID]
inhibition [1]: Active
inhibition [2]: Dose-dependent effect
fold change (FC) [3]: 6
Activity [4]: Non-toxic
